From US5233031A, “Phosphoramidate analogs of 2'-deoxyuridine” (University of Rochester, priority 1991, dated 1993)
Read-outs that look alike come from different tables or passages of the source.

What was measured:
Format in all cases: cell-based
B16 melanoma cells = assay: Cytotoxicity against B16 melanoma cells (clonogenic assay); settings: read-out: LC-99 (concentration of compound required to kill 99% of B16 melanoma cells)
Protocol: ^a Concentration of compound required to kill 99% of B16 melanoma
cells in a clonogenic assay. Cells were treated with the compound for 2
B16 cells in exponential growth (2-3×10^6 cells in 10 ml of serum-free MEM medium) were treated with drug for 2 hr. The cells were separated, washed, and resuspended in MEM medium supplemented with 10% fetal bovine serum. The cells were plated in 60-mm culture dishes at a density of 50-50,000 cells/plate (depending upon the drug concentration used initially) and then incubated for 8 days in a CO2 incubator at 37° C. The colonies were fixed and stained with 0.5% crystal violet in ethanol and counted.

L1210 leukemia cells [1] = assay: Growth inhibition against L1210 leukemia cells in vitro; settings: for IC50: Mus musculus
Protocol: In addition to the B16 melanoma cell assay summarized in Table I, compounds 1a-e, 5 and 7 were evaluated for growth inhibitory activity against L1210 leukemia cells. Stock solutions of the compounds were prepared in 95% ethanol, and serial dilutions of drug were prepared in ethanol such that 50 μl of drug solution added to 10 ml of cell suspension gave the desired final concentration. L1210 cells in exponential growth were suspended in Fischer's medium supplemented with 10% horse serum, 1% glutamine, and 1% antibiotic-antimycotic solution to give 10-ml volumes of cell suspension at a final density of 3-6×10^4 /ml. Appropriate volumes of the solutions of each compound were transferred to the cell suspensions, and incubation was continued for 2, 8, 24, or 48 hr. The cells were spun down, resuspended in fresh drug-free medium, and returned to the incubator, then counted with a Coulter Counter 48 hr after treatment with the compound.
^a Data represents an average of at least two experiments; L1210 cell
were treated with compound for 2, 8, 24 and 48 hr. The drugcontaining
medium was removed, cells were washed, complete medium was added, and the
cells were incubated for 48 hr total. Cell counts were obtained 48 hr
after the start of treatment.

L1210 leukemia cells [2] = assay: Reversal of L1210 growth inhibition by addition of thymidine; settings: 5 μM thymidine
Text: The relationship between potency and alkylating activity was confirmed by the synthesis and evaluation of the non-alkylating morpholino phosphoramidate 1e.

[3] = Mus musculus, B16, 2 hr treatment
[4] = L1210, 48 h, read-out: IC50, treatment time 48 hr
[5] = L1210, read-out: IC50, treatment time 2 hr
[6] = L1210, read-out: IC50, treatment time 8 hr
[7] = L1210, read-out: IC50, treatment time 24 hr

| SMILES | IC99 (B16 melanoma cells; [3]) | IC50 (L1210 leukemia cells [1]; [4]) | IC50 (L1210 leukemia cells [1]; [5]) | IC50 (L1210 leukemia cells [1]; [6]) | IC50 (L1210 leukemia cells [1]; [7]) | also measured |
| --- | --- | --- | --- | --- | --- | --- |
| Cc1cn([C@H]2C[C@H](O)[C@@H](COP(=O)(OCCC3NC(C)(C)CC(C)O3)N(C)CCBr)O2)c(=O)[nH]c1=O (some centres unmarked) [Compound 7, Thymidyl-[2-(4,4,-trimethyltetrahydro-1,3-oxazin-2-yl)ethyl]-N-methyl-N-(2-bromoethyl)phosphoramidate] | 165 µM | 590 nM | 13000 nM | 10500 nM | 7000 nM |  |
| Cc1ccc(S(=O)(=O)OCCN(C)P(=O)(OCCC2NC(C)(C)CC(C)O2)OC[C@H]2O[C@@H](n3cc(F)c(=O)[nH]c3=O)C[C@@H]2O)cc1 (some centres unmarked) [Compound 1b] | 156 µM | 2.5 nM | 160 nM | 60 nM | 19 nM |  |
| CC1CC(C)(C)NC(CCOP(=O)(OC[C@H]2O[C@@H](n3cc(F)c(=O)[nH]c3=O)C[C@@H]2O)N(C)CCCl)O1 (some centres unmarked) [Compound 1c] | 308 µM | 3.5 nM | 300 nM | 160 nM | 25 nM |  |
| Cc1cn([C@H]2C[C@H](O)[C@@H](COP(=O)(OCCC3NC(C)(C)CC(C)O3)N3CCOCC3)O2)c(=O)[nH]c1=O (some centres unmarked) [Compound 3, Thymidyl-[2-(4,4,6-trimethyltetrahydro-1,3-oxazin-2-yl)ethyl]morpholinophosphoramidate] | 152 µM |  |  |  |  |  |
| CC1CC(C)(C)NC(CCOP(=O)(OC[C@H]2O[C@@H](n3cc(F)c(=O)[nH]c3=O)C[C@@H]2O)N2CCOCC2)O1 (some centres unmarked) [Compound 1e, 5-Fluoro-2'-deoxy-5'-uridyl-[2-(4,4,6-trimethyltetrahydro-1,3-oxazin-2-yl)ethyl]-morpholinophosphoramidate] | 216 µM | 150 nM | 15000 nM | 5000 nM | 900 nM | potency compared with 5-FU (L1210 leukemia cells [1]; long treatment times): comparable in potency to 5-FU |
| O=c1[nH]cc(F)c(=O)[nH]1 [5-Fluorouracil, reference compound] |  |  |  |  |  | IC50 (L1210 leukemia cells [1]; L1210, 2 hr treatment, counted 48 hr after start of treatment, average of at least two experiments, read-out: IC50, treatment time 2 hr): 2200 nM; IC50 (L1210 leukemia cells [1]; L1210, 8 hr treatment, counted 48 hr after start of treatment, average of at least two experiments, read-out: IC50, treatment time 8 hr): 630 nM; IC50 (L1210 leukemia cells [1]; L1210, 24 hr treatment, counted 48 hr after start of treatment, average of at least two experiments, read-out: IC50, treatment time 24 hr): 220 nM; IC50 (L1210 leukemia cells [1]; L1210, 48 hr treatment, average of at least two experiments, read-out: IC50, treatment time 48 hr): 125 nM |
| CC1CC(C)(C)NC(CCOP(=O)(OC[C@H]2O[C@@H](n3ccc(=O)[nH]c3=O)C[C@@H]2O)N2CCOCC2)O1 (some centres unmarked) [Compound 2, 2'-Deoxy-5'-uridyl-[2-(4,4,6-trimethyltetrahydro-1,3-oxazin-2-yl)ethyl]morpholinophosphoramidate] | 190 µM |  |  |  |  |  |
| CC1CC(C)(C)NC(CCOP(=O)(OC[C@H]2O[C@@H](n3ccc(=O)[nH]c3=O)C[C@@H]2O)N(C)CCBr)O1 (some centres unmarked) [Compound 5, 2'-Deoxy-5'-uridyl-[2-(4,4,-trimethyltetrahydro-1,3-oxazin-2-yl)ethyl]-N-methyl-N-(2-bromoethyl)phosphoramidate] | 318 µM | 425 nM | 20000 nM | 8200 nM | 1300 nM |  |
| CC1CC(C)(C)NC(CCOP(=O)(OC[C@H]2O[C@@H](n3cc(F)c(=O)[nH]c3=O)C[C@@H]2O)N2CCCCC2)O1 (some centres unmarked) [Compound 4, 5-Fluoro-2'-deoxy-5'-uridyl-[2-(4,4,6-trimethyltetrahydro-1,3-oxazin-2-yl)ethyl]piperidinophosphoramidate] | 98 µM |  |  |  |  |  |
| Cc1cn([C@H]2C[C@H](O)[C@@H](COP(=O)(OCCC3NC(C)(C)CC(C)O3)N(CCBr)CCBr)O2)c(=O)[nH]c1=O (some centres unmarked) [Compound 8, Thymidyl-[2-(4,4,6-trimethyltetrahydro-1,3-oxazin-2-yl)ethyl]bis-(2-bromoethyl)phosphoramidate] |  |  |  |  |  | IC99 (B16 melanoma cells; 2 hr treatment): 120 µM |
| CC1CC(C)(C)NC(CCOP(=O)(OC[C@H]2O[C@@H](n3cc(F)c(=O)[nH]c3=O)C[C@@H]2O)N(C)CCBr)O1 (some centres unmarked) [Compound 1a, 5-FIuoro-2'-deoxy-5'-uridyl-[2-(4,4,6-trimethyltetrahydro-1,3-oxazin-2-yl)ethyl]-N-methyl-N-(2-bromoethyl)phosphoramidate] | 100 µM | 2.5 nM | 120 nM | 50 nM | 18 nM | inhibitory activity on addition of thymidine (L1210 leukemia cells [2]): completely blocked; inhibition of cell proliferation (L1210 leukemia cells [1]; 1a: 2 hr contact time, iodo and tosyl analogs: compared with 1a): potent inhibitor of cell proliferation; potency relative to 5-FU (more potent) (L1210 leukemia cells [1]; treatment times of 2, 8, 24, and 48 hr): 1-2 orders of magnitude |
| CC1CC(C)(C)NC(CCOP(=O)(OC[C@H]2O[C@@H](n3cc(F)c(=O)[nH]c3=O)C[C@@H]2O)N(C)CCI)O1 (some centres unmarked) [Compound 1d, 5-Fluoro-2'deoxy-5'-uridyl-[2-(4,4,6-trimethyltetrahydro-1,3-oxazin-2-yl)ethyl]-N-methyl-N-(2-iodoethyl)phosphoramidate] | 95 µM | 2 nM | 190 nM | 75 nM | 6 nM |  |
